Among the data in patent publication US12570614B2, “Phenyl amino pyrimidine compounds and uses thereof” (GlaxoSmithKline LLC, priority 2007, dated 2026) are IC50 values, retold here.

One experiment addresses human JAK2 (Homo sapiens (Human), UniProt O60674). The experiment is described as follows: JAK2 kinase domain Alphascreen enzyme screening. The format is biochemical. Conditions: read-out: JAK2_IC50_nM. As for the experimental part: (§1) For screening purposes, compounds (in 100% DMSO) were warmed at 37° C. for at least 20 minutes before use. A […] stock was initially made in assay buffer, where the final concentration of DMSO was 0.3%. The stocks were then diluted in 384 well Optiplates (Packard) where the final concentration of the compound was 5 μM.
The kinase domain of human JAK2 was amplified from U937 mRNA using the polymerase chain reaction with the following primers: […]
The JAK2 PCR products were cloned into the pDest20 destination vector (Gibco). The JAK2 plasmid was then transformed into competent DH10Bac cells (Gibco), and the recombinant baculovirus was prepared via Sf9 insect cell transfection.
(§2) Baculovirus preparations from each of the JAK family members were infected into one litre of […] (Spodoptera frugiperda) cells (Invitrogen) grown in SF900II serum free medium (Invitrogen) to a cell density of approximately 2×10^6 cells/ml. Cells were infected with virus at a cell culture to virus stock ratio of 20:1. Cells were harvested and lysed 48 hours post infection. The GST-tagged JAK kinase domains were purified by affinity chromatography on a GSH agarose column (Scientifix).
Alphascreen phosphotyrosine acceptor beads followed by streptavidin donor beads at a concentration of 1/100 in stop buffer were added to each well under subdued light and incubated for 2-3 hours. The Alphascreen plates were read on a Packard Fusion Alpha instrument
For orientation: In Alpha technology, singlet oxygen from a donor bead excites a nearby acceptor bead.

The target in a further experiment is human JAK3 (Homo sapiens (Human), UniProt P52333). The experiment can be described thus: JAK3 kinase domain Alphascreen enzyme screening. The format is biochemical. Conditions: read-out: JAK3_ IC50_nM. As for the experimental part:
as §1
The kinase domain of human JAK3 was amplified from U937 mRNA using the polymerase chain reaction with the following primers: […]
The JAK3 PCR products were cloned into the pDest20 destination expression vector (Gibco). The JAK3 plasmid was then transformed into competent DH10Bac cells (Gibco), and the recombinant baculovirus was prepared via Sf9 insect cell transfection.
as §2
The compounds were then incubated with substrate in the presence of either […] ATP for 60 or 90 minutes. […] (final concentration 111 μM) or substrate-2 substrate with the sequence biotin-[…] [SEQ ID NO: 16] (final concentration 133 μM). Alphascreen phosphotyrosine acceptor beads followed by streptavidin donor beads at a concentration of 1/100 in stop buffer were added to each well under subdued light and incubated for 2-3 hours. The Alphascreen plates were read on a Packard Fusion Alpha instrument

The test system of experiment [1] is BaF3 TELJAK cells (BafT_J2). The experiment is described as follows: Cellular screening, BaF3 TELJAK2 cells (Alamar Blue). The experiment is classed as cell-based. The settings on record: Mus musculus, BaF3; 48-72 hr incubation; read-out: BafT_J2_IC50_μM. As for the experimental part:
(§3) For screening purposes, compounds were diluted in 96 well plates at a concentration of 20 μM. Plates were warmed at 37° C. for 30 minutes before the assay was performed.
A TEL/Jak2 fusion was generated by digestion of the TELPCR product with BamH I/Sal I restriction enzymes, digestion of the JAK2 PCR product with Sal I/Not I restriction enzymes, followed by ligation and subcloning of the ligation product into the mammalian expression Vector pTRE 2 (Clontech), which was prepared by digestion with BamH I—Not I restriction enzymes, to give the TEL/Jak2 fusion plasmid pTELJAK2.
(§4) The growth factor dependent myelomonocytic cell line BaF3 bearing the pTET-off plasmid (Clontech) was transfected with either pTELJAK2 or pTELJAK3, and the transfected cells were selected for growth-factor independent cell growth. The BaF3 wild-type cells were cultured in DMEM containing 10% FCS, 10% WEHI 3B conditioned medium. The BaF3 TELJAK cells ([…]) were cultured in DMEM 10% Tet-System Approved FBS (without WEHI 3B conditioned medium).
(§5) Cell suspensions were prepared by harvesting cells from culture (the cells used in this test were in late log phase growth with high viability.) Cells were diluted in the appropriate growth medium, as described above, to 1.1× final concentration (from 50,000 cell/mL to 200,000 cell/mL, depending on cell line).
Compounds to be tested were added (10 μL, 10× final concentration) to a flat bottomed 96-well plate. The cellular suspension (90 μL per well) was then added, and the plate incubated for 48-72 hr at 37° C., 5% CO2. Alamar Blue 10 μL per well was added and the plates returned to the incubator for a further 4-6 hours.
(§6) Result are given in table 2 where +++ is <1 μM, ++ is <5 μM and + is <20 μM
(In general: The colour change of resazurin is a common sign of viable cells or microbes.)

In another experiment the test system is BaF3 wild-type cells. The experiment is described as follows: Cellular screening, BaF3 wild-type cells (Alamar Blue). The settings on record: Mus musculus, 48-72 hr incubation, read-out: BAF3wt_IC50_μM. The format is cell-based. As for the experimental part:
as §3, §4, §5
(§7) Compounds to be tested were added (10 μL, 10× final concentration) to a flat bottomed 96-well plate. The cellular suspension (90 μL per well) was then added, and the plate incubated for 48-72 hr at 37° C., 5% CO2. Alamar Blue 10 μL per well was added and the plates returned to the incubator for a further 4-6 hours. The plates were then read at 544 nm.
as §6

In the next experiment the test system is CTLL2. The experiment can be described thus: Cellular screening, CTLL2 cells (Alamar Blue). The format is cell-based. Conditions: Mus musculus, CTLL-2; 48-72 hr incubation; read-out: CTLL2_IC50_μM. How it is done:
as §3, §5, §7, §6

Counter-ions that a name gives are not always drawn.

Sequence of human JAK2 (O60674 849-1124): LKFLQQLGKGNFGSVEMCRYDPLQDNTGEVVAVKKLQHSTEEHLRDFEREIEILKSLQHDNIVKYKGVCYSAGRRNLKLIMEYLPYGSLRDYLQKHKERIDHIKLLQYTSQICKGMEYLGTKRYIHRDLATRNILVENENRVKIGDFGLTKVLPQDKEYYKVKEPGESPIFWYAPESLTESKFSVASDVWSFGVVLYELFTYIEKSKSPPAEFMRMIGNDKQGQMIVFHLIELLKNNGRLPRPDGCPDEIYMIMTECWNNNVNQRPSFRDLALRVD
Sequence of human JAK3 (P52333 822-1111): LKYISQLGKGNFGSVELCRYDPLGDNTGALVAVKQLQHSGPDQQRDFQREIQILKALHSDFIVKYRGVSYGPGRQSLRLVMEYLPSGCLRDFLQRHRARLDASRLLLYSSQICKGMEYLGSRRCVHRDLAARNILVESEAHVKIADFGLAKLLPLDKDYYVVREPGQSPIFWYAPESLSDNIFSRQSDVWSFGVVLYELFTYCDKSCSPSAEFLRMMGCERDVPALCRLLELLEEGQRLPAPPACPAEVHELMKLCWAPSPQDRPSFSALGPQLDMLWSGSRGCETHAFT

Turning to `COc1cc(Nc2nccc(-c3ccc(C(=O)NCC#N)cc3)n2)cc(OC)c1OC` [Compound 20, N-(cyanomethyl)-4-(2-(3,4,5-trimethoxyphenyl-amino)pyrimidin-4-yl)benzamide], the IC50 on human JAK2 is < 100 nM; at human JAK3, < 100 nM; in experiment [1] it was < 1000 nM; in the experiment on BaF3 wild-type cells, < 1000 nM; in the experiment on CTLL2, < 5000 nM.

Consider `O=C(NCC1CCCO1)c1ccc(-c2ccnc(Nc3ccc(N4CCOCC4)cc3)n2)cc1` (centres unmarked) [Compound 21, 4-(2-(4-morpholinophenyl-amino)pyrimidin-4-yl)-N-((tetrahydrofuran-2-yl)methyl)benzamide], for which the IC50 on human JAK2 is < 500 nM; on human JAK3 it was < 500 nM; in experiment [1], < 20000 nM; with BaF3 wild-type cells, < 20000 nM; in the experiment on CTLL2 it was < 20000 nM.

Regarding `CS(=O)(=O)N(CC#N)c1ccc(-c2ccnc(Nc3ccc(N4CCOCC4)cc3)n2)cc1` [Compound 31, N-(cyanomethyl)-N-(4-(2-(4-morpholinophenyl-amino)pyrimidin-4-yl)phenyl)methane-sulfonamide], the IC50 at human JAK2 was < 100 nM; on human JAK3, < 500 nM; in experiment [1] it was < 5000 nM; in the experiment on BaF3 wild-type cells it was < 5000 nM; in the experiment with CTLL2, < 5000 nM.

For `N#CCNC(=O)CNC(=O)c1ccc(-c2ccnc(Nc3ccc(N4CCOCC4)cc3)n2)cc1` [Compound 34, N-(2-(cyanomethylamino)-2-oxoethyl)-4-(2-(4-morpholinophenyl-amino)pyrimidin-4-yl)benzamide], the IC50 on human JAK2 was < 100 nM; on human JAK3 it was < 500 nM; in experiment [1], < 20000 nM; with BaF3 wild-type cells it was < 5000 nM; in the experiment on CTLL2, < 5000 nM.

On to `N#CCNC(=O)c1ccc(-c2ccnc(Nc3ccc(N4CCC(CO)CC4)cc3)n2)cc1` [Compound 42, N-(cyanomethyl)-4-(2-(4-(4-(hydroxymethyl)piperidin-1-yl)phenylamino)pyrimidin-4-yl)benzamide], for which the IC50 on human JAK2 is < 100 nM; at human JAK3 it was < 500 nM; in experiment [1], < 5000 nM; with BaF3 wild-type cells, < 5000 nM; in the experiment with CTLL2, < 5000 nM.

Turning to `N#CCNC(=O)c1ccc(-c2ccnc(Nc3ccc(C(=O)N4CCC(N5CCCC5)CC4)cc3)n2)cc1` [Compound 50, N-(cyanomethyl)-4-(2-(4-(4-(pyrrolidin-1-yl)piperidine-1-carbonyl)phenyl-amino)pyrimidin-4-yl)benzamide], the IC50 at human JAK2 is < 100 nM; at human JAK3 it was < 1000 nM; in experiment [1] it was < 5000 nM; with BaF3 wild-type cells, < 20000 nM; in the experiment with CTLL2, > 20000 nM.

Take `N#CCNC(=O)c1ccc(-c2nc(Nc3ccc(N4CCOCC4)cc3)ncc2Cl)cc1` [Compound 53, 4-(5-chloro-2-(4-morpholinophenyl-amino)pyrimidin-4-yl)-N-(cyanomethyl) benzamide]: the IC50 on human JAK2 is < 100 nM; at human JAK3, < 500 nM; in experiment [1], < 1000 nM; with BaF3 wild-type cells it was < 5000 nM; in the experiment on CTLL2, < 5000 nM.

Turning to `CC(=O)N1CCN(c2ccc(Nc3nccc(-c4ccc(C(=O)NCC#N)cc4)n3)cc2)CC1` [Compound 55, 4-(2-(4-(4-acetylpiperazin-1-yl)phenylamino)pyrimidin-4-yl)-N-(cyanomethyl) benzamide], the IC50 was < 100 nM at human JAK2; < 100 nM at human JAK3; < 1000 nM in experiment [1]; < 5000 nM in the experiment on BaF3 wild-type cells; < 5000 nM in the experiment on CTLL2.

For the compound `Cc1cnc(Nc2ccc(N3CCC(NS(C)(=O)=O)CC3)cc2)nc1-c1ccc(C(=O)NCC#N)cc1` [Compound 56, N-(cyanomethyl)-4-(5-methyl-2-(4-(4-(methylsulfonamido)piperidin-1-yl)phenylamino)pyrimidin-4-yl)benzamide], the IC50 on human JAK2 is < 100 nM; on human JAK3 it was < 100 nM; in experiment [1] it was < 1000 nM; in the experiment on BaF3 wild-type cells, < 5000 nM; with CTLL2, < 5000 nM.

As to `C#CCN(c1ccc(-c2ccnc(Nc3ccc(N4CCOCC4)cc3)n2)cc1)S(C)(=O)=O` [Compound 57, N-(4-(2-(4-morpholinophenyl-amino)pyrimidin-4-yl)phenyl)-N-(prop-2-ynyl)methane-sulfonamide tosylate], the IC50 is < 100 nM on human JAK2; < 1000 nM on human JAK3; < 5000 nM in experiment [1]; < 5000 nM in the experiment on BaF3 wild-type cells; < 5000 nM with CTLL2.

With `Cc1cnc(Nc2ccc(N3CCC(O)CC3)cc2)nc1-c1ccc(C(=O)NCC#N)cc1` [Compound 58, N-(cyanomethyl)-4-(2-(4-(4-hydroxypiperidin-1-yl)phenylamino)-5-methylpyrimidin-4-yl)benzamide], the IC50 at human JAK2 was < 100 nM; on human JAK3, < 100 nM; in experiment [1] it was < 1000 nM; in the experiment with BaF3 wild-type cells, < 5000 nM; in the experiment on CTLL2, < 1000 nM.

Consider `N#CCNC(=O)c1ccc(-c2ccnc(Nc3ccc(OC4CCNCC4)cc3)n2)cc1` [Compound 59, N-(cyanomethyl)-4-(2-(4-(piperidin-4-yloxy)phenylamino)pyrimidin-4-yl)benzamide], for which the IC50 is < 100 nM on human JAK2; < 500 nM on human JAK3; < 5000 nM in experiment [1]; < 1000 nM with BaF3 wild-type cells; < 5000 nM with CTLL2.

Regarding `N#CCNC(=O)c1ccc(-c2nc(Nc3ccc(N4CCOCC4)cc3)ncc2Br)cc1` [Compound 65, 4-(5-bromo-2-(4-morpholinophenyl-amino)pyrimidin-4-yl)-N-(cyanomethyl) benzamide], the IC50 at human JAK2 was < 100 nM; on human JAK3 it was < 100 nM; in experiment [1], < 1000 nM; in the experiment with BaF3 wild-type cells, < 1000 nM; in the experiment on CTLL2, < 1000 nM.

On to `CCCOCc1cccc(Nc2nccc(-c3ccc(C(=O)NCC#N)cc3)n2)c1` [Compound 75, N-(cyanomethyl)-4-(2-(3-(proproxymethyl)phenylamino)pyrimidin-4-yl)benzamide], for which the IC50 is < 100 nM on human JAK2; < 1000 nM on human JAK3; < 5000 nM in experiment [1]; < 5000 nM in the experiment on BaF3 wild-type cells; < 5000 nM with CTLL2.

Take `N#CCC(=O)Nc1ccc(-c2ccnc(Nc3ccc(N4CCOCC4)cc3)n2)cc1C(F)(F)F` [Compound 76, 2-cyano-N-(4-(2-(4-morpholinophenyl-amino)pyrimidin-4-yl)-2-(trifluoromethyl)phenyl)acetamide]: the IC50 on human JAK2 is < 100 nM; at human JAK3, < 1000 nM; in experiment [1], < 5000 nM; with BaF3 wild-type cells, < 5000 nM; with CTLL2 it was < 5000 nM.

On to `C=CCOCc1cc(Nc2nccc(-c3ccc(C(=O)NCC#N)cc3)n2)ccc1N1CCOCC1` [Compound 79], for which the IC50 is < 100 nM at human JAK2; < 500 nM at human JAK3; < 1000 nM in experiment [1]; < 1000 nM in the experiment with BaF3 wild-type cells; < 5000 nM with CTLL2.
